Assay results taken from BindingDB's records for doi:10.1021/acs.jmedchem.9b01709 (The Institute of Cancer Research, 2019).

Target: Heat shock 70 kDa protein 1A (HSP72/HSPA1A) (Homo sapiens) (UniProt P0DMV8)
Test: Covalent inhibition of HSP72-NBD (unknown origin) nucleotide-derived FP probe displacement based by fluorescence polarization assay

Sequence of Heat shock 70 kDa protein 1A (HSP72/HSPA1A) (Homo sapiens) (P0DMV8 whole entry, looked up): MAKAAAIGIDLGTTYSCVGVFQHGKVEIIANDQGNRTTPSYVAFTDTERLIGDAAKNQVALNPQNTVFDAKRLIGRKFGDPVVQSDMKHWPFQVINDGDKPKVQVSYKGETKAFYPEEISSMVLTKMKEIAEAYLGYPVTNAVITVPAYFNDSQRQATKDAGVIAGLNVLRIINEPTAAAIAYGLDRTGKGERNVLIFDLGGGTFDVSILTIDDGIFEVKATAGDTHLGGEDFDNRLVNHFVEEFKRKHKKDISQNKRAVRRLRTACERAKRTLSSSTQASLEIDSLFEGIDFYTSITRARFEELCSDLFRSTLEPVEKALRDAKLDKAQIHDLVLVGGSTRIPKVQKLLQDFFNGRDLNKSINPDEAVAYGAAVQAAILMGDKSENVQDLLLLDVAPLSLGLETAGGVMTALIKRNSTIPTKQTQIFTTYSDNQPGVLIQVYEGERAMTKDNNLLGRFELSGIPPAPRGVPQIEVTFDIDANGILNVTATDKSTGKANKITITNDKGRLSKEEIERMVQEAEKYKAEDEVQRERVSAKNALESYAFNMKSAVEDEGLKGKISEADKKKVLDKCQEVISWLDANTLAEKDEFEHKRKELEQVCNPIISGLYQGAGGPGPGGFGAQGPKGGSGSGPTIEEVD

N#Cc1ccc(COC[C@H]2O[C@@H](n3c(NCc4ccc(Cl)c(Cl)c4)nc4c(N)ncnc43)[C@H](O)[C@@H]2O)cc1 [adenosine-derived inhibitor (Grp78), 13]
Ki: < 0.2 µM
